{
  "source": "paper PMC13702766",
  "about": "“Pharmacokinetic-Modifying Linker Design Modulates Performance of Multivalent PSMA/GRPR-Cell-Targeting ^177Lu Radiopharmaceuticals” (Cancers, 2026)",
  "target": "T1, PSMA (Homo sapiens, UniProt Q04609)",
  "T1 construct": "LNCaP whole cells were prepared in suspension; host or cells: LNCaP human prostate carcinoma cells",
  "T1 sequence (Q04609 whole entry)": "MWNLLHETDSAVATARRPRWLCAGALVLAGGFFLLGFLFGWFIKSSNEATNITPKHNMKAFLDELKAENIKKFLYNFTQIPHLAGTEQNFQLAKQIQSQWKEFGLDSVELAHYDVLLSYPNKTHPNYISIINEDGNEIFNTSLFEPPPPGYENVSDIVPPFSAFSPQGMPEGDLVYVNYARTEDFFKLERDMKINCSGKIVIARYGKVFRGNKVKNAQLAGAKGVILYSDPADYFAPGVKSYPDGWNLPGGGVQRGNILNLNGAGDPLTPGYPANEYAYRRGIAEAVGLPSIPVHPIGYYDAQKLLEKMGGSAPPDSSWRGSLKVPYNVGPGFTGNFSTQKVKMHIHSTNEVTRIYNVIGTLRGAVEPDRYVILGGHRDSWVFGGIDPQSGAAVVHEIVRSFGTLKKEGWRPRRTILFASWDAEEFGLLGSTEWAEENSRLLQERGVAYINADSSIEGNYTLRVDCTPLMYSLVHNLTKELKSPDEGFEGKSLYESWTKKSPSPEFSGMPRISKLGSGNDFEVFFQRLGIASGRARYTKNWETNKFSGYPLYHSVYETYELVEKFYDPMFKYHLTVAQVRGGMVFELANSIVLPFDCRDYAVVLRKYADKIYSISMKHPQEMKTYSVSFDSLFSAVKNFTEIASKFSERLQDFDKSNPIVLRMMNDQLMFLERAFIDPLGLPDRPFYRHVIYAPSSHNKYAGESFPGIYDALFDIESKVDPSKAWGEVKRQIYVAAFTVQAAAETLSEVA",
  "test": "Whole-cell competitive binding assay in PSMA[+] LNCaP cells vs [177Lu]Lu-PSMA-617",
  "description": "LNCaP whole cells were prepared in suspension (7.50 × 10^5 cells/mL) in binding media (DMEM + 0.2% BSA + 25 mM HEPES). […] Samples were incubated at room temperature for 60 min, centrifuged, and the supernatant was removed. Cell pellets were washed twice with ice-cold PBS and subsequently counted using an automated gamma counter. […] IC50 values were determined by nonlinear regression in GraphPad Prism, with all experiments performed in triplicate.",
  "data": [
    {"molecule": "O=C(O)CC[C@H](NC(=O)N[C@@H](CCCCNC(=O)[C@H](Cc1ccc2ccccc2c1)NC(=O)[C@H]1CC[C@H](CNC(=O)CN2CCN(CC(=O)O)CCN(CC(=O)O)CCN(CC(=O)O)CC2)CC1)C(=O)O)C(=O)O", "note": "[PSMA-617]", "values": [
      {"measurement": "IC50", "value": "2.7 ± 0.1", "unit": "nM"}
    ]}
  ]
}
